Measurements as given in patent US11414425B2 (priority 2018, dated 2022).

Columns and labels:
[1] = biological target: α5β3γ2 GABAA receptors (Homo sapiens, UniProt P18507+P31644); experiment: [3H]Ro15-1788 binding, membranes of Ltk cells stably expressing α5β3γ2 GABAA receptors; conditions: ranges; inhibition of [3H]Ro15-1788 binding
[2] = biological target: T1, GABAA receptors (α5β2γ2) (Homo sapiens, UniProt P18507+P31644); experiment: Positive allosteric modulator activity: potentiation of EC20 GABA current in oocytes; format: cell-based; conditions: read-out: GABA α5 Functional Data (potentiation of EC20 GABA); @ 100 nM; ranges
T1 construct: expressed in transfected cells
T1 sequence (P31644 32-462): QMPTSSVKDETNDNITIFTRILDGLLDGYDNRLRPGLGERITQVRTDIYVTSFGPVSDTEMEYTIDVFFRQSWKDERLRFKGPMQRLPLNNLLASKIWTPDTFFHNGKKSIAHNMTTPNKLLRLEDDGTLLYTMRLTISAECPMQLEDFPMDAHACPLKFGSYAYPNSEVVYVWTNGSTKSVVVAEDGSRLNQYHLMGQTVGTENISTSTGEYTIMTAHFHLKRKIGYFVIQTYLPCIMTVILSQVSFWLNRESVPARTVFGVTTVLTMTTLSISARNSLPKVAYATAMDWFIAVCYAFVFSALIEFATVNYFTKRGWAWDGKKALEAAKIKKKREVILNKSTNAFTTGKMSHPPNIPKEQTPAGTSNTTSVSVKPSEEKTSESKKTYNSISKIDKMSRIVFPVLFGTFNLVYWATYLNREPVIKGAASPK
T1 sequence (P47870 25-512, further chain): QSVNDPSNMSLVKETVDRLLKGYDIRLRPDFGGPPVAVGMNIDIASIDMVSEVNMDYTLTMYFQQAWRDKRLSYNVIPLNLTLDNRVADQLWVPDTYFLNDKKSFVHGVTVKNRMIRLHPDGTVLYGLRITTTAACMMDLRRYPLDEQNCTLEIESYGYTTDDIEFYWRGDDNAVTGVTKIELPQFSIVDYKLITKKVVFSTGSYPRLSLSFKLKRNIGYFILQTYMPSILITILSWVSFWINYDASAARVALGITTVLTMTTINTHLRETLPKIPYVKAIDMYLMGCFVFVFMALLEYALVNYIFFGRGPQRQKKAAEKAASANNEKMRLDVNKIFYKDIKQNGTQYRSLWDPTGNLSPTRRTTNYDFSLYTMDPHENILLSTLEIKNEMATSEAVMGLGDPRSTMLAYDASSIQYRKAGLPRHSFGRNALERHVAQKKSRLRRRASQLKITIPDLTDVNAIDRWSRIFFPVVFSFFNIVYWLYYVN
T1 sequence (P18507 40-475): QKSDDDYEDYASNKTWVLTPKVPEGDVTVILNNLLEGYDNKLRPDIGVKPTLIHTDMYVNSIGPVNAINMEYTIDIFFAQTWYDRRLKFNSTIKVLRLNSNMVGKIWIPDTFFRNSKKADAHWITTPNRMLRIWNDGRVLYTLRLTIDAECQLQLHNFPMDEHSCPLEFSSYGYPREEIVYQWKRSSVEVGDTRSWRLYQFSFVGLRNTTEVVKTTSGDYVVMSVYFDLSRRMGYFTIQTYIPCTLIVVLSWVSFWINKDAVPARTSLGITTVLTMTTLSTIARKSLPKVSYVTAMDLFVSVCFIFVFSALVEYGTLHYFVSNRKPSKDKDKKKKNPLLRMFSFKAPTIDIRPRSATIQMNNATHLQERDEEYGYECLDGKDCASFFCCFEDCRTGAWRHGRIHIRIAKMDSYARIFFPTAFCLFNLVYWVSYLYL
Protocol: On day 1, 1 ng/32 nL of GABAA α5β2γ2 cDNA was injected into one oocyte. Test starts on day 2. The cDNA injected to the oocytes was a mix of alpha, beta and gamma, their ratio is 1:1:10 (by weight) and the total weight of the mixed 3 subunits to be injected in one oocyte was 1 ng in 32 nl volume. The injected oocytes can also be tested on day 3. In such case, the cDNA amount injected to the oocytes should be reduced by 20%.
1). 8 oocytes were placed in 8 chambers of OpusXpress and superfused with Modified Barth's Saline (MBS) at 3 mL/min. Glass electrodes back-filled with 3M KCl (0.5-3 megaohms) were used.
1). New oocytes were used to run new test.
3). […] Oocytes were washed with MBS for 5-10 min.
4). […] Itest was divided by IGABA to obtain potentiation (%).
Test Compounds at Multiple Doses • 1). Repeat the above steps 1), 2) and 3) in the control test. • 2). […] Divide Itest by IGABA to obtain potentiation (%). • 3). Discard all tested oocytes, new oocytes were used and the above steps 1) and 2) were repeated to test second concentration of the same compound. Each oocyte was used for only one concentration test for a single test compound. The steps were repeated for other test compounds.

Chain of α5β3γ2 GABAA receptors (P31644 32-462): as the sequence (P31644 32-462) above
Chain of α5β3γ2 GABAA receptors (P28472 26-473 partner): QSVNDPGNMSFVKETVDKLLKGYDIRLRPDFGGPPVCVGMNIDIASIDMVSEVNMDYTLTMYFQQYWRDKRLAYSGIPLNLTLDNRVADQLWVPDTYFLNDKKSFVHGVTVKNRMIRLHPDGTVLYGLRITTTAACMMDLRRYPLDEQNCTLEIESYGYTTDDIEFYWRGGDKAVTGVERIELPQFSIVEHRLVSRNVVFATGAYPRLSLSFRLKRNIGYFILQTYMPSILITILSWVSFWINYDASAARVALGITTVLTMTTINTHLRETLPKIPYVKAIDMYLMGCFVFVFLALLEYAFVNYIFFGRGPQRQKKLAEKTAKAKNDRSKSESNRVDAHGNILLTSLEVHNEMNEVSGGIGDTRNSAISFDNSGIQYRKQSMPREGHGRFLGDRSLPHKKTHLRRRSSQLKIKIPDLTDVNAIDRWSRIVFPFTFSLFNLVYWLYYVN
Chain of α5β3γ2 GABAA receptors (P18507 40-475): as the sequence (P18507 40-475) above

Structure (SMILES)	Ki [1] [nM]	activation at 0.1 µM [2] [%]
CCOC(=O)c1ncn2c1Cc1c(Cc3cccnc3)nnn1-c1cc(C)ccc1-2 [Compound 111]	< 100	20 to 50
COCc1nnc2n1Cc1c(C3=NC(C)CO3)ncn1-c1ccc(Cl)cc1-2 (centres unmarked) [Compound 243]	< 100	20 to 50
COc1ccc2c(c1)-n1nncc1Cc1c(C3=N[C@H](c4ccccc4)CO3)ncn1-2 [Compound 290]	< 100	20 to 50
C#Cc1ccc2c(c1)-c1nnc(COC)n1Cc1c(C3=N[C@@H](c4ccccc4)CO3)ncn1-2 [Compound 301]	< 100	5 to 20
Clc1ccc2c(c1)-c1nnc(COCc3ccccc3)n1Cc1c(-c3ncco3)ncn1-2 [Compound 350]	–	> 50
C#Cc1ncn2c1Cn1c(COc3ccccc3F)nnc1-c1cc(Cl)ccc1-2 [Compound 353, 15-chloro-5-ethynyl-9-(2-fluorophenoxymethyl)-2,4,8,10,11-pentaazatetracyclo[11.4.0.0^2,6.0^8,12]heptadeca-1(17),3,5,9,11,13,15-heptaene]	–	> 50
C#Cc1ncn2c1Cc1cnnn1-c1cc(Cl)ccc1-2 [Compound 356]	–	> 50
COc1ccc2c(c1)-n1nncc1Cc1c(C3=N[C@@H](c4ccc(F)cc4)CO3)ncn1-2 [Compound 367]	< 100	5 to 20
COc1ccc2c(c1)-n1nncc1Cc1c(C#CCc3cccc(Cl)c3)ncn1-2 [Compound 417]	–	5 to 20
COc1ccc2c(c1)-n1nncc1Cc1c(C#CCc3cccc(F)c3)ncn1-2 [Compound 419]	–	20 to 50
COc1ccc2c(c1)-n1nncc1Cc1c(C#CCc3ccccc3OC(F)(F)F)ncn1-2 [Compound 420]	–	5 to 20
COCc1nnc2n1Cc1c(C#CCc3cccc(F)c3)ncn1-c1ccc(Cl)cc1-2 [Compound 421]	–	20 to 50
COCc1nnc2n1Cc1c(C#CCc3cccc(Cl)c3)ncn1-c1ccc(Cl)cc1-2 [Compound 422]	–	20 to 50
COCc1nnc2n1Cc1c(C#CCc3cccc(OC(F)(F)F)c3)ncn1-c1ccc(Cl)cc1-2 [Compound 423]	–	5 to 20
CC(C)C#Cc1ccc2c(c1)-n1nncc1Cc1c(Br)ncn1-2 [Compound 454]	–	5 to 20
Cc1noc(-c2ncn3c2Cc2cnnn2-c2cc(Br)ccc2-3)n1 [Compound 473]	< 100	5 to 20
Cc1noc(-c2ncn3c2Cc2cnnn2-c2cc(-c4ccccc4)ccc2-3)n1 [Compound 474]	< 100	5 to 20
FC(F)(F)c1ccc2c(c1)-n1nncc1Cc1c(-c3ncco3)ncn1-2 [Compound 475]	< 100	5 to 20
FC(F)(F)Oc1ccc2c(c1)-n1nncc1Cc1c(-c3ncco3)ncn1-2 [Compound 476]	< 100	5 to 20
CC(C)c1noc(-c2ncn3c2Cc2c(Cc4cccc(F)c4)nnn2-c2cc(Cl)ccc2-3)n1 [Compound 481]	< 100	5 to 20
Cc1noc(-c2ncn3c2Cc2c(Cc4cccc(F)c4)nnn2-c2cc(C(F)(F)F)ccc2-3)n1 [Compound 482]	< 100	20 to 50
Cc1noc(-c2ncn3c2Cc2c(Cc4cccc(F)c4)nnn2-c2cc(OC(F)(F)F)ccc2-3)n1 [Compound 485]	< 100	5 to 20
Cc1noc(-c2ncn3c2Cc2c(Cc4cccc(F)c4)nnn2-c2cc(OC(F)F)ccc2-3)n1 [Compound 491]	< 100	20 to 50
Cc1noc(-c2ncn3c2Cc2c(Cc4ccc(F)cc4)nnn2-c2cc(OC(F)F)ccc2-3)n1 [Compound 492]	< 100	20 to 50
COCc1nnc2n1Cc1c(C#Cc3cnc(C)[nH]3)ncn1-c1ccc(OC)cc1-2 [Compound 685]	–	> 50
COCc1nnc2n1Cc1c(C#Cc3ccnn3C)ncn1-c1ccc(OC)cc1-2 [Compound 686]	–	> 50
COCc1nnc2n1Cc1c(C#Cc3ccn(C)n3)ncn1-c1ccc(OC)cc1-2 [Compound 687]	–	> 50
